Source: patent US12584919B2, “Enhancing anti-tumor response in melanoma cells with defective sting signaling” (H. Lee Moffitt Cancer Center and Research Institute, Inc., priority 2018, dated 2026)
Entries after “also recorded” stand apart in the source; their conditions may differ.

Assays:
[1] = system: human melanoma cell lines (WM39, WM3629, 526-MEL) as targets, TIL 195 as effector cells; experiment: 51Cr release cytotoxicity assay, lysis of melanoma targets by TIL
Experimental: After 4 hours, supernatant was harvested and measured in Trilux (PerkinElmer). Each point represented the average of quadruplicate wells and percentage of specific lysis was calculated by: (experimental release—minimum release)/(maximum release-minimum release)×100.

[2] = system: human melanoma cell lines; experiment: CXCL10 and IFN-β release (ELISA) after STING agonist stimulation; format: cell-based
[3] = system: human melanoma cell lines; experiment: Flow cytometry of MHC class I (HLA-A.B.C) surface expression; format: cell-based
Experimental: DAPI (Sigma-Aldrich) was used as a viability dye. Sample acquisition was performed on an LSR II flow cytometer (BD Biosciences), and the data were analyzed using FlowJo software (Tree Star).

[4] = system: human melanoma cell lines (WM39, WM3629, 526-MEL) co-cultured with HLA-matched TIL; experiment: Co-culture assay of melanoma cells with HLA-matched TIL, cytokine release by ELISA
Experimental: TIL production of IFN-γ and ^51Cr release was assessed for cytotoxicity.
After 24 hours of incubation at 37° C. in a humidified CO2 incubator, the supernatant was harvested for detection of IFN-γ release using enzyme-linked immunosorbent assay (Human IFN-γ Quantikine ELISA Kit, R&D Systems). For the MHC class I blocking assay, melanoma cells were incubated with W6/32 (anti-HLA-A,B,C monoclonal antibody, Biolegend) at a final concentration of 50 μg/mL for 1 hour at 37° C. prior to the addition of TIL.

[5] = system: human melanoma cell lines; experiment: IRF3 phosphorylation by immunoblot after STING agonist stimulation; format: cell-based
From the text: Proteins were extracted with RIPA buffer (ThermoFisher Scientific) containing protease inhibitors (Thermo Scientific). Protein extracts from NK92, a natural killer cell line, was used as a positive control for the expression of STING and cGAS (Souza-Fonseca-Guimaraes F, et al. J Biol Chem. 2013 288:10715-21). Equal amounts of proteins were resolved on SDS-PAGE gels (Bio-Rad) and transferred to polyvinylidene fluoride (PVDF) membranes (Bio-Rad). After blocking with 5% non-fat dry milk, membranes were incubated with antibodies specific for STING, cGAS, p-IRF3, IRF3 (all from Cell Signaling) and β-actin (Sigma Aldrich). Following incubation with appropriate secondary antibodies, bands were visualized using an enhanced chemiluminescence detection system.

[6] = system: melanoma cell lines lacking STING; experiment: STING/cGAS expression by immunoblot after demethylating agent treatment
From the text: STING and cGAS expression were examined in a panel of human melanoma cell lines by immunoblot.

[7] = system: melanoma cell lines lacking STING; experiment: CXCL-10 induction in 5AZADC-treated melanoma cells after STING agonist stimulation; conditions: 5AZADC-treated cell lines lacking STING, then stimulated with the STING agonist 2′3′-cGAMP
[8] = WM9 and WM39 cell lines, 2′3′-cGAMP stimulation

## Nc1nc2c(ncn2[C@@H]2O[C@@H]3COP(=O)(O)O[C@H]4[C@@H](O)[C@H](n5cnc6c(N)ncnc65)O[C@@H]4COP(=O)(O)O[C@@H]2[C@@H]3O)c(=O)[nH]1 [2′3′-cGAMP, 2′3′-cyclic-GMP-AMP]
[1]; 526-MEL cells
  lysis by TIL 195 (lytic units): did not induce any increase in lysis
[1]; 526-MEL targets, defective in STING signaling
  specific lysis by TIL 195: did not alter their specific lysis
[1]; Example 2, STING-responsive cell lines with HLA-matched TILs, p<0.05
  augmentation of TIL cytotoxicity: > 2 fold
[1]; WM39 and MART-1-pulsed WM39 cells vs their controls
  increase in lytic potential of TIL 195 (lytic units): > 10 fold
[1]; WM39 and MART-1 pulsed WM39 targets, p<0.05
  increase in lysis by TIL 195: > 2 fold
[1]; WM39 and sh-control targets
  cytolytic activity of TIL 195: increased cytolytic activity
[1]; WM39 target cells with or without 2′3′-cGAMP in the absence of TIL
  cytotoxicity of the STING agonist alone: did not result in any major cytotoxicity
[1]; WM3629 cells
  lysis by TIL 195 (lytic units): greater lysis
[1]; WM3629 targets, p<0.05 vs controls
  cytotoxicity (lysis by TIL 195): Increased
[1]; sh-STING (STING knockdown WM39) targets
  cytolytic activity of TIL 195: complete blockade of this response
[2]; 526-MEL (HLA-A2) cell line
  response to 2′3′-cGAMP stimulation (p-IRF3, CXCL10, IFN-β): did not respond
[2]; [8]
  CXCL10 induction in cell culture supernatants: detectable levels
  IFN-β induction in cell culture supernatants: detectable levels
[3]; 1205Lu, WM266-4, WM2032 and 526-MEL cell lines with impaired STING signaling
  expression of MHC class I: no significant changes
[3]; Example 1, human melanoma cell lines (FIG. 14)
  MHC-I/HLA-A.B.C expression: upregulation of MHC I
[3]; WM39 and sh-control cells, p<0.01
  higher surface expression of MHC class I: more than 2.5 fold
[3]; sh-STING (STING knockdown WM39) cells
  surface expression of MHC class I: did not cause any increase in MHC class I
[4]; 526-MEL / TIL 19 co-culture
  IFN-γ secretion: did not induce any increased IFN-γ secretion
[4]; 526-MEL / TIL 195 co-cultures
  IFN-γ release: no increase in IFN-γ release
[4]; Example 2, STING-positive cell lines responding strongly, cultured with HLA-matched TILs, p<0.01
  increase in IFN-γ secretion: ≤ 15 fold
[4]; MART-1 pulsed WM39 / TIL 195 co-culture, p<0.001
  IFN-γ secretion by TIL: significantly increased
[4]; MART-1 pulsed WM39 with two additional HLA-A2 TIL, p<0.01 vs untreated co-cultures
  IFN-γ production by TIL: higher levels of IFN-γ production
[4]; WM39 / TIL 19 co-cultures, p<0.001
  IFN-γ release, higher than the untreated group: 24 fold
[4]; WM39 / TIL 195 and sh-control / TIL 195 co-cultures, P<0.05
  higher IFN-γ release: more than 25 fold
[4]; WM39 / TIL 195 co-culture groups with 2′3′-cGAMP
  IFN-β in co-culture supernatants: Induction of IFN-β
[4]; WM39 / TIL 195 co-culture, with vs without 2′3′-cGAMP
  IFN-γ secretion by TIL: significantly enhanced
[4]; WM3629 / TIL 195 co-cultures, p<0.01
  IFN-γ release: increased
[4]; control group containing TIL with 2′3′-cGAMP, no tumor cells
  IFN-β induction: not observed
[4]; sh-STING (STING knockdown WM39) / TIL 195 co-cultures
  IFN-γ induction: no increase in IFN-γ induction
[5]; 5 STING-positive cell lines (WM164, WM9, WM39, A375, WM1366), 2′3′-cGAMP 10 μg/ml with Lipofectamine, 4 h
  phosphorylation of IRF3: 4 of 5 STING-positive cell lines
[5]; WM2032 (STING-negative) cell line, 2′3′-cGAMP stimulated
  phosphorylation of IRF3: not detected

## Nc1ncn([C@H]2C[C@H](O)[C@@H](CO)O2)c(=O)n1 [5AZADC, 5-aza-2′-deoxycytidine]
[6]; 5AZADC-treated melanoma cell lines lacking STING
  STING expression: Partial induction of STING expression; also recorded: reconstitution of STING expression
[6]; A375, G361, MeWO, SK-MEL-5 and other human melanoma cell lines with and without 5AZADC (FIG. 7)
  STING and cGAS expression: partially recapitulated
[7]
  CXCL-10 induction: induction of CXCL-10; also recorded: production of CXCL-10; also recorded: STING-dependent CXCL-10 induction
